Laboratory results taken from patent US20250340519A1, “RADIOLABELLED COMPOUND” (OXFORD UNIVERSITY INNOVATION LIMITED, priority 2018, published 2025).

Key:
[1] = female mice, intravenous bolus 20 mg/kg; cited from earlier work
[2] = system: U87MG and U251MG xenografts; assay: 18F-olaparib biodistribution in U87MG and U251MG tumour xenograft mouse models; format: in vivo, Balb/c nude mice; details: 20 μg cold olaparib prior to 1 μg ^18F-olaparib, tail vein
Method: U87MG and U251MG xenografts were generated in Balb/c nude mice. The xenograft models were administered various doses (0.5, 1.0, 4.0, and 8.0 μg) of ^18F-olaparib by tail vein injection. At 60-120 min post-injection, mice were sacrificed and organs were collected for biodistribution; see FIGS. 27(a) and (b), and FIG. 28(a). […] We predicted that the uptake for the U251MG xenografts would be greater, but in vivo there is no significant difference between the % ID/g for the U251MG or U87MG xenograft tumours.
A 20-fold excess of cold olaparib was injected via tail vein 60 m prior to 1 μg of ^18F-olaparib via tail vein. The mice were sacrificed at 60-120 min post-injection and organs were harvested.

PANC-1 cells = assay: Cell uptake of [18F]olaparib in PANC-1 cells; format: cell-based, human; details: excess of unlabelled inhibitor
Method: PARP1 levels in a limited selection of PDAC cell lines were determined using Western blot and confirmed by immunofluorescence microscopy. […] Uptake was reported as a percentage of the total amount added, per mg of total protein recovered from the isolated cells, determined by BCA assay. Specificity of uptake was determined by blocking olaparib binding sites using an excess of cold, unlabeled olaparib, or other PARP inhibitors (rucaparib, talazoparib).
Cell uptake of ^18F-olaparib in Panc-1, MiaPaCa-2 and Capan-1 cells was determined as previously described (Cornelissen, B., Hu, M., McLarty, K., Costantini, D. & Reilly, R. M.
Cellular penetration and nuclear importation properties of 111In-labeled and 123I-labeled HIV-1 tat peptide immunoconjugates in BT-474 human breast cancer cells. Nucl Med Biol 34, 37-46, 2007; Thurber, G. M., Reiner, T., Yang, K. S., Kohler, R. H. & Weissleder, R. Effect of small-molecule modification on single-cell pharmacokinetics of PARP inhibitors. Molecular cancer therapeutics 13, 986-995, 2014; Reiner, T., et al. Imaging therapeutic PARP inhibition in vivo through bioorthogonally developed companion imaging agents. Neoplasia 14, 169-177, 2012). Aliquots of Panc-1, MiaPaca-2, and Capan-1 cells (1.5×10^5 cells/well) were seeded in 24-well plates in warm cell culture medium (500 μL) and the cells were allowed to adhere overnight. Cells were irradiated (10 Gy; dose rate 0.8 Gy/min) or sham-irradiated and then returned to an incubator (37° C., 5% CO2) for 2 h. […] In the blocking groups, non-radioactive olaparib, talazoparib, or rucaparib were also added in increasing concentrations (10 pM-10 μM. After 30 or 60 minutes, the cell culture medium was removed and combined with two washes (500 μL) of cell culture medium. The remaining monolayer of cells was then lysed with 0.1 M sodium hydroxide for 20 minutes at room temperature. The amount of radioactivity contained within the cell culture medium and the cell lysate fractions was measured using a gamma counter. Protein levels from parallel plates were quantified using a Pierce BCA protein assay kit (Thermo Scientific) according to the manufacturer's recommendations and bovine serum albumin was used as the protein standard. Cell uptake levels of [^18F]-olaparib were normalised to percent of the total added radioactivity per milligram protein. […] IC50 values were calculated using GraphPad Prism software (GraphPad Software, San Diego, CA, USA). […]
Aliquots of Panc-1, MiaPaca-2, and Capan-1 cells (7.5×10^4 cells/well) were seeded in 24-well plates in warm cell culture medium (500 μL). […] The amount of radioactivity contained within the cell culture medium and the cell lysate fractions was measured using a gamma counter. […]

U87MG and U251MG cells = assay: Blocking of 18F-olaparib uptake in U87MG and U251MG cells; format: cell-based; details: 100 μM cold olaparib vs 1 μM ^18F-olaparib
Method: Olaparib (1) was used at various concentrations to block 1 μM of the radiolabelled isotopologue, ^18F-olparib (compound 3); see FIG. 26.

SMILES: O=C(c1cc(Cc2n[nH]c(=O)c3ccccc23)ccc1F)N1CCN(C(=O)C2CC2)CC1 [Compound 1, 4-(3-(4-(cyclopropanecabonyl)piperazine-1-carbnonyl)-4-fluorobenzyl)phthalazin-1(2H)-one]
- previously reported half-life [1]: 58 min
- blocking of ^18F-olaparib tumour uptake in vivo [2]: ~75%
- blocking of [^18F]olaparib uptake by excess PARP inhibitor (PANC-1 cells): could be blocked
- blocking of ^18F-olaparib uptake in vitro (U87MG and U251MG cells): ~70%

SMILES: CNCc1ccc(-c2[nH]c3cc(F)cc4c3c2CCNC4=O)cc1 [rucaparib]
- blocking of [^18F]olaparib uptake by excess PARP inhibitor (PANC-1 cells): could be blocked

SMILES: Cn1ncnc1[C@H]1c2n[nH]c(=O)c3cc(F)cc(c23)N[C@@H]1c1ccc(F)cc1 [talazoparib]
- blocking of [^18F]olaparib uptake by excess PARP inhibitor (PANC-1 cells): could be blocked
